Data from patent US9795566B2, “Imidazole compound and liposome containing same” (FUJIFILM Corporation, priority 2014, dated 2017).

Assay: Stability of the compounds and of the liposomes (statement in words)
Assay type: physicochemical
Settings: compound itself

Row | SMILES | stability of the compound
1 | CCCCCCCCCCCCCCCCN(CCCCCCCCCCCCCCCC)CCOCCOC(=O)C(N)Cc1cnc[nH]1 (centres unmarked) [Example 1] | very stable
2 | CCCCCCCCCCCCCCCCN(CCCCCCCCCCCCCCCC)C(=O)COCCOCCOCCNC(=O)C(N)Cc1cnc[nH]1 (centres unmarked) [Example 3] | very stable
